Reference: patent US11597762B2, “Treatment of a disease of the gastrointestinal tract with an IL-12/IL-23 inhibitor released using an ingestible device” (BIORA THERAPEUTICS, INC., priority 2016, dated 2023)

Assay: Tacrolimus tissue pharmacokinetics, oral vs intra-cecal ingestible device, in Yorkshire-Cross farm swine
Format: in vivo
Conditions: intra-cecal compared to oral, 12 hours post-dose, FIG. 76
Description: No further randomization procedure was employed.
Animals in Group 1 received an ingestible device containing 0.8 mL of vehicle solution (80% alcohol, 20% HCO-60). Animals in Group 2 received orally […] liquid formulation of tacrolimus at 4 mg/0.8 mL per animal (Prograf: 5 mg/mL). Animals in Group 3 received intra-cecally an ingestible device containing tacrolimus at 1 mg in 0.8 mL per ingestible device. Animals in Group 4 received intra-cecally an ingestible device containing tacrolimus at 2 mg in 0.8 mL per ingestible device. Animals in Group 5 received intra-cecally an ingestible device containing tacrolimus at 4 mg in 0.8 mL per ingestible device. […]
Approximately 200˜400 mg of rectal content were collected, if available, with a fecal swab (Copan Diagnostics Nylon Flocked Dry Swabs, 502CS01). The fecal swab was pre-weighed and weighed after collection in the collection tube (Sterile Tube and Cap No Media, PFPM913S), and the sample weight was recorded. […]
For tissue necropsy, small intestine fluid and cecal fluid were collected separately from all the animals into two separate square plastic bottles, and stored at −20° C. The length and diameter of the cecum and the colon was measured from one animal in each group and recorded for reference. […] All samples were weighed, and the tissue sample weights were recorded. […]

- mean concentration of tacrolimus in the cecum tissue: higher
- mean concentration of tacrolimus in the proximate colon tissue: higher
Structure (SMILES): C=CC[C@@H]1/C=C(\C)C[C@H](C)C[C@H](OC)[C@H]2O[C@@](O)(C(=O)C(=O)N3CCCC[C@H]3C(=O)O[C@H](/C(C)=C/[C@@H]3CC[C@@H](O)[C@H](OC)C3)[C@H](C)[C@@H](O)CC1=O)[C@H](C)C[C@@H]2OC [tacrolimus]
